Test results as given in US11584714B2 (priority 2018, dated 2023).
pKi: −log10 of the molar value. Counter-ions that a name gives are not always drawn. Like-named read-outs stand apart in the source and are kept apart here.

What was measured:
Assay type in all cases: biochemical
mMASP-2 = mMASP-2 (Mus musculus (Mouse), UniProt Q91WP0); experiment: Enzymatic inhibition of mMASP-2; settings: read-out: mMASP-2 Ki
human α-thrombin = human α-thrombin (Homo sapiens (Human), UniProt P00734); experiment: Enzymatic assay for thrombin (Boc-VPR-AMC substrate); settings: for Ki: Thrombin Ki (μM); for pKi: read-out: Thrombin Ki
MASP-2 (CCP1-CCP2-SP) = MASP-2 (CCP1-CCP2-SP) (Homo sapiens (Human), UniProt O00187); experiment: biochemical
Sequence of MASP-2 (CCP1-CCP2-SP) (O00187 445-686): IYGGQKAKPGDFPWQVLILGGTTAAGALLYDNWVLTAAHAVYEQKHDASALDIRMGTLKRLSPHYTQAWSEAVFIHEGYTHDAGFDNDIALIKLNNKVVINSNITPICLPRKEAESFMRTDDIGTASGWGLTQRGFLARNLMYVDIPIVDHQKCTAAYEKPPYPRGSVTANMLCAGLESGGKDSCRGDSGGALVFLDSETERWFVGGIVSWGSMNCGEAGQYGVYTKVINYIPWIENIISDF

[1] = selectivity for MASP-2 inhibition versus thrombin
[2] = MASP-2 inhibition versus thrombin

Sequence of mMASP-2 (Q91WP0 20-685): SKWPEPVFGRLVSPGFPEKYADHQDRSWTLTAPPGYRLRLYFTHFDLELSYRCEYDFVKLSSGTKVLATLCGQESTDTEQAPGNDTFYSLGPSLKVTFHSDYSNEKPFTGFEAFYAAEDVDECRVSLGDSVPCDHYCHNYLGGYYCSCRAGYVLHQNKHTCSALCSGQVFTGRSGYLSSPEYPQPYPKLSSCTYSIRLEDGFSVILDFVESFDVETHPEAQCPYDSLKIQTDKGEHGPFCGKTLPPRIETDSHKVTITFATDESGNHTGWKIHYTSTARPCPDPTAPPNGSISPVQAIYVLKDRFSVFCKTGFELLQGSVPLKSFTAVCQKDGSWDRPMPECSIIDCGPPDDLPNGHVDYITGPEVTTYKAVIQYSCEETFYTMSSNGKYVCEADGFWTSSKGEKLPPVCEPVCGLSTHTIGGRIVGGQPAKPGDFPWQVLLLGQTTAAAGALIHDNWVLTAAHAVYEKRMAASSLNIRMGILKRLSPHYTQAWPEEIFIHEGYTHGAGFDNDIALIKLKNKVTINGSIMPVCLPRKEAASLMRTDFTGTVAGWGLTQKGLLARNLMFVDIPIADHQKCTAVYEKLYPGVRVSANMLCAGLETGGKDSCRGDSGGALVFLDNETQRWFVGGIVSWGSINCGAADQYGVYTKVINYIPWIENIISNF

Compound	pKi (mMASP-2)	Ki (human α-thrombin)	pKi (MASP-2 (CCP1-CCP2-SP); read-out: MASP-2 Ki)	MASP-2 vs. thrombin selectivity (MASP-2 (CCP1-CCP2-SP); [1])	pKi (human α-thrombin)	pKi (MASP-2 (CCP1-CCP2-SP))	MASP-2 vs. thrombin selectivity (MASP-2 (CCP1-CCP2-SP); [2])
Cc1nc(N)ccc1CNC(=O)[C@H](C)NC(=O)[C@H]1C[C@H](Cc2ccccc2-c2ccc(Cl)s2)CN1 [compound 1410, (2R,4S)—N—((S)-1-(((6-Amino-2-methylpyridin-3-yl)methyl)amino)-1-oxopropan-2-yl)-4-(2-(5-chlorothiophen-2-yl)benzyl)pyrrolidine-2-carboxamide Trifluoroacetate]	5.60 to 6.30	0.5 to 2.5 µM	> 6.30	*** (≥25 to <100-fold)	–	–	–
Cc1nc(N)ccc1CNC(=O)[C@@H]1CCCN1C(=O)[C@H]1C[C@H](Cc2ccc(Br)cc2)CN1 [compound 1465, (S)—N-((6-Amino-2-methylpyridin-3-yl)methyl)-1-((2R,4S)-4-(4-bromobenzyl)pyrrolidine-2-carbonyl)pyrrolidine-2-carboxamide Di-trifluoroacetate salt]	5.60 to 6.30	–	> 6.30	* (≥1.0 to <5.0-fold)	> 6.30	–	–
C[C@H](NC(=O)[C@H](N)CCc1ccccc1)C(=O)NCc1cc(Cl)ccc1-n1cncn1 [compound 1341, (R)-2-amino-N—((S)-1-((5-chloro-2-(1H-1,2,4-triazol-1-yl)benzyl)amino)-1-oxopropan-2-yl)-4-phenylbutanamide]	< 4.60	0.5 to 2.5 µM	–	−− (<1.0-fold)	–	4.60 to 5.00	–
CN[C@H](CCc1ccccc1)C(=O)N[C@@H](C)C(=O)NCc1ccc(C(=N)N)cc1 [compound 1044]	> 6.30	–	> 6.30	–	> 6.30	–	** (5.0 to 25-fold)
Cc1nc(N)ccc1CNC(=O)[C@H](C)NC(=O)[C@H]1C[C@H](Cc2ccc(N3CCCC3=O)cc2)CN1 [compound 1391, (2R,4S)—N—((S)-1-(((6-Amino-2-methylpyridin-3-yl)methyl)amino)-1-oxopropan-2-yl)-4-(4-(2-oxopyrrolidin-1-yl)benzyl)pyrrolidine-2-carboxamide Di-trifluoroacetate salt]	> 6.30	–	> 6.30	**** (≥100-fold)	< 4.60	–	–
Cc1cccc([C@H]2CN[C@@H](C(=O)N[C@@H](C)C(=O)NCc3ccc(C(=N)N)cc3)C2)c1 [compound 1247, (2R,4S)—N—((S)-1-((4-Carbamimidoylbenzyl)amino)-1-oxopropan-2-yl)-4-(m-tolyl)pyrrolidine-2-carboxamide]	> 6.30	0.5 to 2.5 µM	> 6.30	*** (≥25 to <100-fold)	–	–	–
Cc1nc(N)ccc1CNC(=O)[C@H](C)NC(=O)c1cc(Cc2ccccc2)n[nH]1 [compound 1367, (S)—N-(1-(((6-Amino-2-methylpyridin-3-yl)methyl)amino)-1-oxopropan-2-yl)-3-benzyl-1H-pyrazole-5-carboxamide]	4.60 to 5.00	–	> 6.30	–	< 4.60	–	–
C[C@H](NC(=O)[C@H]1C[C@H](c2ccccc2)CN1)C(=O)NCc1ccc(C(=N)N)c(F)c1 [compound 1300, (2R,4R)—N—((S)-1-((4-Carbamimidoyl-3-fluorobenzyl)amino)-1-oxopropan-2-yl)-4-phenylpyrrolidine-2-carboxamide Di-trifluoroacetate salt]	> 6.30	2.5 to 10 µM	> 6.30	*** (≥25 to <100-fold)	–	–	–
C[C@H](NC(=O)[C@H]1C[C@H](Cc2ccccc2-c2ccccc2)CN1)C(=O)NCc1cnc2[nH]cc(Cl)c2c1 [compound 1393, (2R,4S)-4-([1,1′-Biphenyl]-2-ylmethyl)-N-((S)-1-(((3-chloro-1H-pyrrolo[2,3-b]pyridin-5-yl)methyl)amino)-1-oxopropan-2-yl)pyrrolidine-2-carboxamide Di-trifluoroacetate salt]	> 6.30	–	> 6.30	* (≥1.0 to <5.0-fold)	> 6.30	–	–
Cc1cc(Cl)cc(CNC(=O)[C@H](C)NC(=O)[C@H]2C[C@H](c3ccccc3)CN2)c1 [compound 1333, (2R,4R)—N—((S)-1-((3-Chloro-5-methylbenzyl)amino)-1-oxopropan-2-yl)-4-phenylpyrrolidine-2-carboxamide Hydrochloride]	4.60 to 5.00	–	–	–	< 4.60	5.00 to 5.60	–
C[C@H](NC(=O)[C@H]1C[C@H](Cc2ccc(F)c(Cl)c2)CN1CC(=O)O)C(=O)NCc1cnc2c(c1)c(Cl)cn2C [compound 1484, 2-((2R,4S)-2-(((S)-1-(((3-Chloro-1-methyl-1H-pyrrolo[2,3-b]pyridin-5-yl)methyl)amino)-1-oxopropan-2-yl)carbamoyl)-4-(3-chloro-4-fluorobenzyl)pyrrolidin-1-yl)acetic acid Trifluoroacetate salt]	5.60 to 6.30	–	–	–	< 4.60	5.60 to 6.30	–
Cc1cnc(NCCc2ccccc2)c(=O)n1CC(=O)NCc1cc(Cl)ccc1-n1cnnn1 [compound 1489, N-(5-Chloro-2-(1H-tetrazol-1-yl)benzyl)-2-(6-methyl-2-oxo-3-(phenethylamino)pyrazin-1(2H)-yl)acetamide]	5.60 to 6.30	–	> 6.30	−− (<1.0-fold)	> 6.30	–	–
COc1ccccc1CC[C@@H](N)C(=O)N[C@@H](C)C(=O)NCc1ccc(C(=N)N)cc1 [compound 1074]	> 6.30	–	> 6.30	–	> 6.30	–	** (5.0 to 25-fold)
CCN1C[C@@H](Cc2ccc(Cl)c(Br)c2)C[C@@H]1C(=O)N[C@@H](C)C(=O)NCc1ccc(N)nc1C [compound 1464, (2R,4S)—N—((S)-1-(((6-Amino-2-methylpyridin-3-yl)methyl)amino)-1-oxopropan-2-yl)-4-(3-bromo-4-chlorobenzyl)-1-ethylpyrrolidine-2-carboxamide]	> 6.30	–	> 6.30	–	< 4.60	–	–
C[C@H](NC(=O)[C@H]1C[C@H](c2ccccc2)CN1)C(=O)NCc1cc(Cl)c[nH]c1=O [compound 1301, (2R,4R)—N—((S)-1-(((5-Chloro-2-oxo-1,2-dihydropyridin-3-yl)methyl)amino)-1-oxopropan-2-yl)-4-phenylpyrrolidine-2-carboxamide Hydrochloride]	< 4.60	–	–	–	< 4.60	5.00 to 5.60	–
Cc1nc(N)ccc1CNC(=O)[C@H](C)NC(=O)[C@@H](CCc1ccccc1)NCCCc1cccc(O)c1 [compound 1319, (R)—N—((S)-1-(((6-Amino-2-methylpyridin-3-yl)methyl)amino)-1-oxopropan-2-yl)-2-((3-(3-hydroxyphenyl)propyl)amino)-4-phenylbutanamide Dihydrochloride salt]	4.60 to 5.00	2.5 to 10 µM	> 6.30	** (≥5.0 to <25-fold)	–	–	–
C[C@H](NC(=O)[C@H]1C[C@H](Cc2ccccc2-c2ccccc2)CN1)C(=O)NCc1cc(Cl)ccc1-n1cnnn1 [compound 1402, (2R,4S)-4-([1,1′-Biphenyl]-2-ylmethyl)-N-((S)-1-((5-chloro-2-(1H-tetrazol-1-yl)benzyl)amino)-1-oxopropan-2-yl)pyrrolidine-2-carboxamide Trifluoroacetate]	5.60 to 6.30	–	> 6.30	* (≥1.0 to <5.0-fold)	> 6.30	–	–
C[C@H](NC(=O)[C@H]1C[C@H](Cc2ccc(-c3cccnc3)cc2)CN1)C(=O)NCc1cc(Cl)ccc1-n1cnnn1 [compound 1404, (2R,4S)—N—((S)-1-((5-Chloro-2-(1H-tetrazol-1-yl)benzyl)amino)-1-oxopropan-2-yl)-4-(4-(pyridin-3-yl)benzyl)pyrrolidine-2-carboxamide Hydrochloride]	> 6.30	–	> 6.30	** (≥5.0 to <25-fold)	> 6.30	–	–
Cc1cc(Cl)cc(CNC(=O)[C@H](C)NC(=O)[C@H]2C[C@H](c3ccccc3)CN2)c1O [compound 1298, (2R,4R)—N—((S)-1-((5-chloro-2-hydroxy-3-methylbenzyl)amino)-1-oxopropan-2-yl)-4-phenylpyrrolidine-2-carboxamide Hydrochloride]	5.00 to 5.60	–	> 6.30	–	< 4.60	–	–
CC(C)c1cccc([C@H]2CN[C@@H](C(=O)N[C@@H](C)C(=O)NCc3ccc(C(=N)N)cc3)C2)c1 [compound 1316, (2R,4S)—N—((S)-1-((4-Carbamimidoylbenzyl)amino)-1-oxopropan-2-yl)-4-(3-isopropylphenyl)pyrrolidine-2-carboxamide Dihydrochloride]	> 6.30	0.5 to 2.5 µM	> 6.30	*** (≥25 to <100-fold)	–	–	–
C[C@H](NC(=O)[C@H]1C[C@H](c2ccccc2)CN1)C(=O)NCc1cc(Cl)ccc1-n1ncnn1 [compound 1394, (2R,4R)—N—((S)-1-((5-chloro-2-(2H-tetrazol-2-yl)benzyl)amino)-1-oxopropan-2-yl)-4-phenylpyrrolidine-2-carboxamide Trifluoroacetate]	< 4.60	10 to 25 µM	–	* (≥1.0 to <5.0-fold)	–	5.00 to 5.60	–
Cc1ccc([C@@H]2CCN[C@@H](C(=O)N[C@@H](C)C(=O)NCc3ccc(C(=N)N)cc3)C2)cc1 [compound 1248, (2R,4R)—N—((S)-1-((4-Carbamimidoylbenzyl)amino)-1-oxopropan-2-yl)-4-(p-tolyl)piperidine-2-carboxamide]	> 6.30	0.5 to 2.5 µM	> 6.30	** (≥5.0 to <25-fold)	–	–	–
C[C@H](NC(=O)[C@H](N)Cc1cccc2ccccc12)C(=O)NCc1ccc(C(=N)N)cc1 [compound 1092]	> 6.30	–	> 6.30	–	> 6.30	–	−− (less than 1.0-fold)
Cc1cccc(C[C@@H]2CN[C@@H](C(=O)N[C@@H](C)C(=O)NCc3cc(Cl)cc(C)c3O)C2)c1 [compound 1369, (2R,4S)—N—((S)-1-((5-Chloro-2-hydroxy-3-methylbenzyl)amino)-1-oxopropan-2-yl)-4-(3-methylbenzyl)pyrrolidine-2-carboxamide Hydrochloride]	> 6.30	–	> 6.30	**** (≥100-fold)	< 4.60	–	–
